Data on twelve molecules can be found in PMC4002121, “Trimethylation of Histone H3 Lysine 36 by Human Methyltransferase PRDM9 Protein” (The Journal of Biological Chemistry, 2014).

The target in experiment [1] is T1, PRDM9 (Homo sapiens, UniProt Q9NQV7).
T1 construct: The wild-type PRDM9 gene (amino acids 195–385) was amplified by PCR; His tag (cleaved yes); made in house; host or cells: E. coli BL21(DE3)pRARE2-V2R
T1 sequence (Q9NQV7 195-385): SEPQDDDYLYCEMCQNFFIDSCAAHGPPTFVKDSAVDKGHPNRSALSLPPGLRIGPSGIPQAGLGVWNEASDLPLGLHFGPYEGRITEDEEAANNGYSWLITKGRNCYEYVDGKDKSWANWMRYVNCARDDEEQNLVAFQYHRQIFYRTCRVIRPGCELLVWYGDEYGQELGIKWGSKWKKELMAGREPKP
Description: Isothermal titration calorimetry (ITC) binding to PRDM9. The following applies: AdoMet 1 mM injected into 50 μM PRDM9, 25 °C, 20 mM Tris-HCl pH 8.5, one-binding site model. Here is the method: Purified PRMD9 was dialyzed overnight in 20 mM Tris-HCl buffer, pH 8.5. […] ITC titrations were performed on a VP-ITC Micro Calorimeter from GE Healthcare at 25 °C by using 10-μl injections with a total of 25 injections. Data were fitted with a one-binding site model using Microcal Origin software.
FIGURE 7. […] Experiments were performed in duplicate.

Experiment [2] deals with T1, PRDM9. Description: Assay optimization: effect of pH, salt and additives on PRDM9 activity. The class given is biochemical. Here is the method: Samples were incubated for 1 h at 23 °C and reactions were quenched by addition of 20 μl of 7.5 M guanidinium hydrochloride followed by addition of 160 μl of 20 mM Tris-HCl buffer, pH 8.0. Samples were added to wells of a streptavidin/scintillant-coated microplate (FlashPlate® PLUS: PerkinElmer Life Sciences).
FIGURE 3.

In experiment [3] the target is T1, PRDM9. The experiment in a line: Screening PRDM9 against known histone methyltransferase inhibitor library. The class given is biochemical. The settings on record: 2.5 μM H3K36me2 peptide, 62 μM AdoMet, 1 nM PRDM9, 10 mM Tris-HCl pH 8.5, 10 mM DTT, 0.01% Triton X-100, 1% DMSO, 30 min, 23 °C; triplicate. Here is the method:
The Z-factor was determined to ensure the optimized assay was amenable to high-throughput screening in a 384-well format ([46]). […] PRDM9 was then screened against a small library of known histone methyltransferase inhibitors using H3K36me2 as substrate under optimized assay conditions. In this assay, 1 nM PRDM9 was incubated with 2.5 μM H3K36me2 peptide, 62 μM AdoMet in a reaction buffer (10 mM Tris-HCl, pH 8.5, 10 mM DTT, 0.01% Triton X-100) along with compounds ranging in concentrations from 0 to 100 μM, with a final DMSO concentration of 1%. Reactions were incubated at 23 °C for 30 min. The IC50 value was determined for suramin using SigmaPlot.
FIGURE 5. […] Experiments were performed in triplicate as described under “Experimental Procedures.”

For experiment [4], the system named is PRDM9. The settings on record: cited from earlier work. The source says:
Although PRDM9 H3K4 methyltransferase activity has been previously reported ([28]), to our knowledge its activity and substrate specificity have not been fully characterized. […] Our binding data also indicated tight H3K4 peptide binding (low micromolar). Previously, Hayashi et al. ([28]) reported that GST-PRDM9 specifically catalyzed met ...

Experiment [5] concerns the target T1, PRDM9. Description: PRDM9 substrate specificity, radioactivity-based histone peptide methylation assay. The class given is biochemical. The following applies: 10 μM biotinylated peptide, 200 μM AdoMet, 1 nM PRDM9, 10 mM Tris-HCl pH 8.5, 0.01% Triton X-100, 10 mM DTT, 30 min, 23 °C; n = 4. Here is the method: In this assay [^3H]AdoMet (PerkinElmer Life Sciences; catalog number NET155V250UC) was used as a methyl donor to methylate biotinylated histone peptide substrates. […] Samples were incubated for 30 min at 23 °C and the reaction was quenched by addition of 20 μl of 7.5 M guanidinium hydrochloride followed by addition of 160 μl of 20 mM Tris-HCl buffer, pH 8.0. Samples were added to wells of a streptavidin/scintillant-coated microplate (FlashPlate® PLUS; PerkinElmer Life Sciences). Biotinylated peptides would be captured in each well through their interaction with streptavidin, thereby bringing any incorporated [^3H]methyl in proximity of scintillant.
FIGURE 1. […] Data are presented as mean ± S.D. from four experiments.

A further experiment relates to sterile mouse hybrids. The following applies: via baculovirus; cited from earlier work. The source says: PRDM9 is a PR domain-containing protein with multiple zinc fingers that catalyze trimethylation of H3K4 ([28]). It is a meiosis-specific protein that has been reported to control activation of the short highly recombinogenic segments called recombination hot spots ([50]). The H3K4me3 mark is often associated with transcriptional activation ([51], [52]) and DNA repair ([53]). This methyl mark is also associated with recombination hot spot initiation in yeast and mice ([35], [36]) where double strand breaks occur prior to crossover events. However, H3K4me3 marks associated with hot spots are dis ...

The subject of a further experiment is HEK293 cells. The experiment in a line: H3K4 and H3K36 methylation in HEK293 cells overexpressing PRDM9, immunoblotting. It is filed as cell-based, human. The settings on record: normalized to total H3. Here is the method: A FLAG-tagged control vector or FLAG-tagged PRDM9 construct were transfected into HEK293 cells using GeneJuice (Novagen). Transfected cells were serum-deprived prior to lysis in 50 mM Tris-HCl, 400 mM NaCl, 1 mM EDTA, 0.1% SDS, and 1% Triton X-100 supplemented with protease inhibitors. 30 μg of total cell lysate were processed for Western blotting and immunoblotted using specific antibodies to monitor the levels of H3K36me1 (Abcam, ab9048), H3K36me2 (Cell signaling Technology, 2901), H3K36me3 (Cell Signaling Technology, number 9763), H3K4me1 (Cell Signaling Technology, 9723), H3K4me2 (Abcam, ab32356), H3K4me3 (Cell Signaling Technology, number 9727S), and total H3 (Abcam, ab10799). The transfection efficiency of FLAG-PRDM9 was controlled by using an anti-FLAG antibody (FLAG M2 monoclonal, Sigma). Membrane bands were visualized using LiCor IRDye, 680RD anti-rabbit and 800CW anti-mouse secondary antibodies.
FIGURE 8. Trimethylation of H3K4 and H3K36 by PRDM9 in cells. […] Methylation levels of Lys-4 and Lys-36 were quantified and normalized to their respective total H3 levels. FLAG-PRDM9-transfected samples were normalized to samples transfected with FLAG Control vector. IB, immunoblot; CTL, control.
A general note: Immunoblotting shows a protein as a band on a membrane.

Setting [6] is: H3-(1–25) substrate 10 μM, 40 μM AdoMet, 100 nM PRDM9, 10 mM Tris-HCl pH 8.5, 1 h, 23 °C, n = 4.
Setting [7] is: H3-(1–25) substrate, 10 mM Tris-HCl pH 8.5.

“Also recorded” adds a separate entry of the source.

Molecule `C[S+](CC[C@H](N)C(=O)[O-])C[C@H]1O[C@@H](n2cnc3c(N)ncnc32)[C@H](O)[C@@H]1O` (stereo partly shown) [AdoMet, S-adenosylmethionine] registered a Kd at PRDM9 [1] of 18.6 µM.
In the case of `C[S+](C)[O-]` [DMSO, dimethyl sulfoxide], the “effect on PRDM9 activity (in words)” value on PRDM9 [2] (setting [6]) is “maintained high levels of activity at all concentrations of DMSO”. Further, on PRDM9 [2] (setting [7]), the “DMSO concentration of maximum PRDM9 activity” value worked out at 0.16%.
`O[C@@H](CS)[C@@H](O)CS` [DTT]: the “effect on PRDM9 activity (in words)” value on PRDM9 [2] (setting [6]) is reported as “increase in enzyme activity”. For the same molecule, the “concentration of maximal PRDM9 activity (reducing agent)” value on PRDM9 [2] (setting [7]) stood at 10 mM.
For the molecule `[Cl-].[Na+]` [NaCl], at PRDM9 [2] (setting [6]), the “NaCl concentration above which enzyme activity was abolished” value was “above 125 mM” and the “effect on PRDM9 activity (in words)” value is “sharp decrease in activity with increasing NaCl concentrations”.
On to `O=C(O)CCP(CCC(=O)O)CCC(=O)O` [TCEP, Tris(2-carboxyethyl)phosphine], for which, on PRDM9 [2] (setting [6]), the “effect on PRDM9 activity (in words)” value is on record as “sharp decrease in activity at increasing TCEP concentrations”. At PRDM9 [2] (setting [7]), the “concentration of maximal PRDM9 activity (reducing agent)” value is on record as 0.6 mM.
`Cc1ccc(C(=O)Nc2ccc(S(=O)(=O)O)c3cc(S(=O)(=O)O)cc(S(=O)(=O)O)c23)cc1NC(=O)c1cccc(NC(=O)Nc2cccc(C(=O)Nc3cc(C(=O)Nc4ccc(S(=O)(=O)O)c5cc(S(=O)(=O)O)cc(S(=O)(=O)O)c45)ccc3C)c2)c1` [suramin] returned an IC50 against PRDM9 [3] of 4.1 ± 0.1 µM.
“H3-(26–45): histone H3-(26–45) peptide on a peptide array”: the “binding of PRDM9 to peptide on a peptide array (in words)” value in the experiment on PRDM9 [4] is given as “Binding”.
Consider “H3K36A: H3-(21–44) peptide with Lys-36 mutated to alanine”, for which the “PRDM9 methyltransferase activity with substrate (in words)” value with PRDM9 [5] is listed as “not when Lys-36 was trimethylated or mutated to alanine”.
On the same count and under the same terms, next, K4A: K4A mutant of H3-(1–25) peptide: “No activity”; “K4AK9A: K4AK9A mutant of H3-(1–25) peptide”: “No activity”.
As to “PRDM9: PR domain-containing protein 9, histone methyltransferase; FLAG-tagged in cells, residues 195–385 in vitro”, the “effect on sterile phenotype of mouse hybrids (in words)” value in the experiment with sterile mouse hybrids is given as “rescued the sterile phenotype”. Further, the “mono- or dimethylation of H3K4 and H3K36 in cells (in words)” value with HEK293 cells (HEK293 cells overexpressing PRDM9) was “not mono- or dimethylation of either mark”. In addition, the “trimethylation of H3K4 and H3K36 in cells (in words)” value in the experiment with HEK293 cells (HEK293 cells transfected with FLAG-PRDM9 vs FLAG control vector) is “significant increase in trimethylation of H3K4 and H3K36; also recorded: significant increase in H3K36 trimethylation as well as H3K4 trimethylation”.
In the case of Triton X-100, the “effect on PRDM9 activity (in words)” value at PRDM9 [2] (setting [6]) is on record as “Higher concentrations of Triton X-100 up to 0.25% did not further increase the activity”. Also, at PRDM9 [2] (concentrations as low as, H3-(1–25) substrate, 10 mM Tris-HCl pH 8.5), the “Triton X-100 concentration that dramatically improved signal to noise ratio” value was not below 0.004%.

The Kd is the equilibrium constant for the complex coming apart. Low readings indicate higher affinity, high ones lower affinity. What is called IC50 is the concentration that gives 50% inhibition. High values mean a need for much substance, low ones inhibition by little substance.
